Experimental data: PubChem BioAssay (NCI)
Several values for one entry are separate records, joined by “and”; a condition that tells them apart may be missing. Identical values can stand only once.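 Following 48 hours of exposure in 96-well plates, responses at five concentrations were used to interpolate endpoints linearly. GI50 = concentration required for 50% inhibition of growth. TGI denotes the concentration required for complete inhibition of growth.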

Key:
Test in all cases: NCI-60 cell line screen, 48 h
[1] = system: 786-0 renal
[2] = system: A498 renal
[3] = system: A549 NSCLC
[4] = system: ACHN renal
[5] = system: BT-549 breast
[6] = system: CAKI-1 renal
[7] = system: CCRF-CEM leukemia
[8] = system: COLO 205 colon
[9] = system: DU-145 prostate
[10] = system: EKVX NSCLC
[11] = system: HCC-2998 colon
[12] = system: HCT-116 colon
[13] = system: HCT-15 colon
[14] = system: HL-60(TB) leukemia
[15] = system: HOP-62 NSCLC
[16] = system: HOP-92 NSCLC
[17] = system: HS 578T breast
[18] = system: HT29 colon
[19] = system: IGROV1 ovarian
[20] = system: K-562 leukemia
[21] = system: KM12 colon
[22] = system: LOX IMVI melanoma
[23] = system: M14 melanoma
[24] = system: MALME-3M melanoma
[25] = system: MCF7 breast
[26] = system: MDA-MB-231 breast
[27] = system: MDA-MB-435
[28] = system: MDA-N
[29] = system: MOLT-4 leukemia
[30] = system: NCI-H226 lung
[31] = system: NCI-H23 lung
[32] = system: NCI-H460 lung
[33] = system: NCI-H522 lung
[34] = system: NCI/ADR-RES ovarian
[35] = system: OVCAR-3 ovarian
[36] = system: OVCAR-4 ovarian
[37] = system: OVCAR-5 ovarian
[38] = system: OVCAR-8 ovarian
[39] = system: PC-3 prostate
[40] = system: RPMI-8226 leukemia
[41] = system: RXF 393 renal
[42] = system: SF-268 CNS
[43] = system: SF-295 CNS
[44] = system: SF-539 CNS
[45] = system: SK-MEL-2 melanoma
[46] = system: SK-MEL-28 melanoma
[47] = system: SK-MEL-5 melanoma
[48] = system: SK-OV-3 ovarian
[49] = system: SN12C renal
[50] = system: SNB-19 CNS
[51] = system: SNB-75 CNS
[52] = system: SR leukemia
[53] = system: SW-620 colon
[54] = system: T-47D breast
[55] = system: TK-10 renal
[56] = system: U251 CNS
[57] = system: UACC-257 melanoma
[58] = system: UACC-62 melanoma
[59] = system: UO-31 renal

CC1OC(OC2C(OC(=O)[C@]34CCC(C)(C)C[C@H]3C3=CC[C@@H]5[C@@]6(C)CC[C@H](OC7OC(C(=O)O)C(O)C(OC8OCC(O)C(O)C8O)C7O)C(C)(C)[C@@H]6CC[C@@]5(C)[C@]3(C)CC4)OCC(O)C2O)C(O)C(OC2OCC(O)C(O)C2O)C1OC1OCC(O)C(OC2OCC(O)C(O)C2O)C1O (stereo not given in full)
TGI [1]: 25.7 µM and 43 µM | TGI [2]: 4.79 µM and 8.63 µM | GI50 [3]: 5.06 µM and 14.3 µM | TGI [3]: 16.9 µM and 28.4 µM | TGI [4]: 19.6 µM and 25.1 µM | GI50 [5]: 9.13 µM and 20.3 µM | TGI [5]: 25.6 µM and 46.8 µM | TGI [6]: 18.8 µM and 23.1 µM | TGI [7]: 32.1 µM and 31.4 µM | GI50 [8]: 1.8 µM and 7.67 µM | TGI [8]: 3.63 µM and 20.4 µM | TGI [9]: 40.6 µM and 85.1 µM | TGI [10]: 22.6 µM and 35.7 µM | TGI [11]: 4.13 µM and 11.9 µM | GI50 [12]: 8.78 µM and 22.9 µM | TGI [12]: 62.5 µM and > 100 µM | TGI [13]: 32.2 µM and 42.4 µM | GI50 [14]: 2.28 µM and 12.6 µM | TGI [14]: 6.18 µM and 29.5 µM | TGI [15]: 30.7 µM and 32.6 µM | GI50 [16]: 6.12 µM and 13 µM | TGI [16]: 17.4 µM and 26.6 µM | TGI [17]: 37.9 µM and 62.4 µM | GI50 [18]: 4.28 µM and 11.9 µM | TGI [18]: 15 µM and 24.2 µM | GI50 [19]: 11.8 µM and 30.9 µM | TGI [19]: 32.6 µM and > 100 µM | GI50 [20]: 7.42 µM and 17.1 µM | TGI [20]: 21.4 µM and 33.6 µM | GI50 [21]: 4.39 µM and 11.3 µM | TGI [21]: 15.8 µM and 23.7 µM | TGI [22]: 26.3 µM and 35.5 µM | GI50 [23]: 5.97 µM and 19.2 µM | TGI [23]: 17 µM and 34 µM | GI50 [24]: 10.6 µM and 28.6 µM | TGI [24]: 25.7 µM and 91 µM | TGI [25]: 50.7 µM and > 100 µM | TGI [26]: 14.2 µM and 12.9 µM | GI50 [27]: 7.32 µM and 16.7 µM | TGI [27]: 20.1 µM and 32 µM | GI50 [28]: 7.14 µM and 16.4 µM | TGI [28]: 19.8 µM and 31.8 µM | TGI [29]: 25 µM and 49.8 µM | GI50 [30]: 9.29 µM and 19.1 µM | TGI [30]: 24.6 µM and 39.7 µM | TGI [31]: 21.7 µM and 33 µM | GI50 [32]: 49.5 µM and > 100 µM | TGI [32]: > 100 µM | GI50 [33]: 2.53 µM and 12.3 µM | TGI [33]: 7.93 µM and 25.9 µM | TGI [34]: 24.4 µM and 67.7 µM | GI50 [35]: 13 µM and 35 µM | TGI [35]: 50.4 µM and > 100 µM | TGI [36]: 21.6 µM and 37.6 µM | GI50 [37]: 7.26 µM and 17.7 µM | TGI [37]: 20.3 µM and 32.4 µM | TGI [38]: 27.7 µM and 43.1 µM | TGI [39]: 21.7 µM and 23.1 µM | GI50 [40]: 5.62 µM and 16.9 µM | TGI [40]: 19.8 µM and 35.3 µM | TGI [41]: 37.5 µM and 42.9 µM | TGI [42]: 25.5 µM and 54.7 µM | GI50 [43]: 5.98 µM and 15.4 µM | TGI [43]: 18.9 µM and 30.2 µM | TGI [44]: 68.7 µM | GI50 [45]: 6.31 µM and 17.3 µM | TGI [45]: 14.5 µM and 34.2 µM | GI50 [46]: 5.5 µM and 16.3 µM | TGI [46]: 15.9 µM and 30.8 µM | TGI [47]: 29.6 µM and 35 µM | GI50 [48]: 15.4 µM and 37.2 µM | TGI [48]: 33.7 µM and > 100 µM | GI50 [49]: 2.85 µM and 8.35 µM | TGI [49]: 7.2 µM and 21.6 µM | TGI [50]: 23.2 µM and 44.2 µM | TGI [51]: 29.8 µM and 39.3 µM | GI50 [52]: 2.83 µM and 11.1 µM | TGI [52]: 8.95 µM and 26.8 µM | GI50 [53]: 13.6 µM and 27.4 µM | TGI [53]: 29.5 µM and > 100 µM | GI50 [54]: 9.59 µM and 38.3 µM | TGI [54]: 51.8 µM and > 100 µM | TGI [55]: 24 µM | GI50 [56]: 10.9 µM and 24.2 µM | TGI [56]: 24.8 µM and 62 µM | GI50 [57]: 7.06 µM and 16.6 µM | TGI [57]: 20.2 µM and 32.5 µM | TGI [58]: 36.1 µM and 58.1 µM | GI50 [59]: 2.12 µM and 9 µM | TGI [59]: 4.99 µM and 21.1 µM
